Biological target: cloned human glucagon receptor (Homo sapiens (Human), UniProt P47871)
Assay: Glucagon Receptor (hGlucR) Binding Assay
Method: The hGlucuR cDNA is subcloned into the expression plasmid phD (Trans-activated expression of fully gamma-carboxylated recombinant human protein C, an antithrombotic factor. Grinnell, B. W., Berg, D. T., Walls, J. and Yan, S. B. Bio/Technology 5: 1189-1192 (1987)). This plasmid DNA is transfected into 293 HEK cells and selected with 200 μg/mL Hygromycin.
Crude plasma membranes are prepared using cells from suspension culture. The cells are lysed on ice in hypotonic buffer containing 25 mM Tris HCL, pH 7.5, 1 mM MgCl2, DNAse1, 20 u/mL, and Roche Complete Inhibitors-without EDTA. The cell suspension is homogenized with a glass dounce homogenizer using a Teflon pestle for 25 strokes. The homogenate is centrifuged at 4 degrees C. at 1800×g for 15 mins. The supernate is collected and the pellet is resuspended in hypotonic buffer and rehomogenized. The mixture is centrifuged at 1800×g for 15 mins. The second supernate is combined with the first supernate. The combined supernates are recentrifuged at 1800×g for 15 mins to clarify. The clarified supernate is transferred to high speed tubes and centrifuged at 25000×g for 30 minutes at 4 degrees C. […]
The binding buffer contains 25 mM Hepes, pH 7.4, 2.5 mM CaCl2, 1 mM MgCl2, 0.1% fatty acid free BSA, (ICN), 0.003% tween-20, and Roche Complete Inhibitors without EDTA. […] Plates are read with a MicroBeta after 14 hours of settling time at room temp. […]

Sequence of cloned human glucagon receptor (P47871 26-477): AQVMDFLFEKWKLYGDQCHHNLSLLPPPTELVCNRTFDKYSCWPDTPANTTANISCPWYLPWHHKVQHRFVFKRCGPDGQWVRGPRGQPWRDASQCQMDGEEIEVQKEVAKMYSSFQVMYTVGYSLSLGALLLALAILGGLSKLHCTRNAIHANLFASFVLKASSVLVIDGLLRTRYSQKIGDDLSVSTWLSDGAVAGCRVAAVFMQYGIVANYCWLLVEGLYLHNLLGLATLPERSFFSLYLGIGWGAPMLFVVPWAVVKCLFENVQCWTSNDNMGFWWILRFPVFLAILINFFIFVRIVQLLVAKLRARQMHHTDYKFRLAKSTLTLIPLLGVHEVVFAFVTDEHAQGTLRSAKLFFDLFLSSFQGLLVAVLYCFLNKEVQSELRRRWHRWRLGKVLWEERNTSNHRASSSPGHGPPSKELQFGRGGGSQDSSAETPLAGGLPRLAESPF

Cc1cc(OC(CCC(C)(C)C)c2ccc(C(=O)Nc3nnn[nH]3)cc2)cc(C)c1-c1ccc(C(F)(F)F)cc1 (stereo not shown)
Ki: 93.3 nM
